Laboratory results from patent US7410974B2, “Halogenated Quinazolinyl nitrofurans as antibacterial agents” (Ulysses Pharmaceutical Products, Inc., priority 2003, dated 2008).
Converted amounts (≈) assume the structure as drawn. Read-outs that look alike come from different tables or passages of the source.

Legend:
[1] = system: S. epidermidis ATCC 12228; assay: MIC broth microdilution (NCCLS); assay type: cell-based, Staphylococcus epidermidis; conditions: Staphylococcus epidermidis, ATCC12228; S. epidermidis ATCC 12228; read-out: MIC
Method in brief: (§1)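 Susceptibility by NCCLS microdilution: checked inoculum 10^5-10^6 CFU/ml, 24 h at 35° C, and growth assessed at 650 nm and by eye. Haemophilus was tested in HTM medium and Listeria with laked horse blood, each incubated under 5% CO2.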

E. faecalis ATCC 29212 [2] = assay: MIC broth microdilution (NCCLS); assay type: cell-based, Enterococcus faecalis; conditions: E. faecalis ATCC 29212
E. coli ATCC 25922 [3] = assay: MIC broth microdilution (NCCLS); assay type: cell-based, Escherichia coli
S. typhimurium ATCC14028 = assay: MIC broth microdilution (NCCLS); assay type: cell-based, Salmonella typhimurium; conditions: Salmonella enterica; S. typhimurium ATCC14028; read-out: MIC
Description: (§2) Minimal Inhibitory Concentration (MIC) Determination. Bacteria (primary strain panel, TABLE 1). Susceptibility tests were performed following the recommendations from the National Committee for Clinical Standards (NCCLS). The MICs were determined by a broth microdilution technique using a final volume of 100 μl of cation-adjusted Mueller Hinton Broth (MHBCA) and a bacterial inoculum of 10^5-10^6 Colony Forming Units (CFU)/ml. The inocula were verified and precisely determined by applying 10-μl drops of 10-fold dilutions onto Triptic Soy Agar plates. The CFU were counted after an incubation of 24 h at 35° C. Any experiment showing an inoculum that was more or less than 10^5-10^6 CFU/ml was rejected. Control antibiotics and test compounds were prepared at a concentration equivalent to 2-fold the highest desired final concentration. Compounds were then diluted directly in the 96-well microtiter plates by serial 2-fold dilutions using a multichannel pipette. Microtiter plates were incubated during 24 h at 35° C. and growth was recorded by using a microtiterplate reader at 650 nm as well as by visual observation. The MIC was defined as the lowest concentration of compound yielding no visible growth. […] Fastidious bacteria. The medium used for Listeria monocytogenes, Neisseria meningitidis, and Campylobacter jejuni was MHBCA containing 2% laked horse blood. The medium used for Haemophilus influenzae and Branhamella (Moraxella) catarrhalis was HTM as recommended by the NCCLS. Cultures of these fastidious bacteria were incubated at 35° C. in a 5% CO2 atmosphere. […] The medium used for Bacteroides fragilis was Wilkins Chalgren broth and growth was allowed under an anaerobic atmosphere at 35° C. for 48 hours.

A. baumannii ATCC 19606 = assay: MIC broth microdilution (NCCLS); assay type: cell-based, Acinetobacter baumannii; conditions: Acinetobacter baumannii, ATCC19606, read-out: MIC
Method in brief: as §1

[4] = system: Y. enterocolytica ATCC 23715; assay: MIC broth microdilution (NCCLS); assay type: cell-based, Yersinia enterocolytica; conditions: Yersinia, ATCC23715, read-out: MIC
Method in brief: as §1

E. faecium VanA = assay: MIC broth microdilution, antibiotic resistant strain panel; assay type: cell-based; conditions: Enterococcus faecium; multi-resistant E. faecium VanA; read-out: MIC
Method in brief: (§3)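 Broth microdilution per NCCLS in cation-adjusted Mueller Hinton broth, inoculum 10^5-10^6 CFU/ml verified by plate count. Compounds serially diluted 2-fold; plates incubated 24 h at 35° C. MIC taken as lowest concentration giving no visible growth, with growth also read at 650 nm.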

MRSA strain Sa228c = assay: as above; assay type: cell-based, Staphylococcus aureus; conditions: Staphylococcus aureus; multi-resistant MRSA strain Sa228c; read-out: MIC
Method in brief: as §3

MRSA strain Sa253c = assay: as above; assay type: cell-based, Staphylococcus aureus; conditions: Staphylococcus aureus; multi-resistant MRSA strain Sa253c; read-out: MIC
Method in brief: as §3

E. coli MC4100 = assay: MIC broth microdilution (NCCLS); assay type: cell-based; conditions: Escherichia coli; E. coli MC4100, pathotype Reference
Description: as §2

[5] = system: B. cereus, B. subtilis and B. atrophaeus; assay: MIC broth microdilution, Bacillus species; assay type: cell-based; conditions: three Bacillus species (B. cereus, B. subtilis and B. atrophaeus); data not shown
Description: Minimal Inhibitory Concentration (MIC) Determination. Bacteria (primary strain panel, TABLE 1). Susceptibility tests were performed following the recommendations from the National Committee for Clinical Standards (NCCLS). The MICs were determined by a broth microdilution technique using a final volume of 100 μl of cation-adjusted Mueller Hinton Broth (MHBCA) and a bacterial inoculum of 10^5-10^6 Colony Forming Units (CFU)/ml. The inocula were verified and precisely determined by applying 10-μl drops of 10-fold dilutions onto Triptic Soy Agar plates. The CFU were counted after an incubation of 24 h at 35° C. Any experiment showing an inoculum that was more or less than 10^5-10^6 CFU/ml was rejected. Control antibiotics and test compounds were prepared at a concentration equivalent to 2-fold the highest desired final concentration. Compounds were then diluted directly in the 96-well microtiter plates by serial 2-fold dilutions using a multichannel pipette. Microtiter plates were incubated during 24 h at 35° C. and growth was recorded by using a microtiterplate reader at 650 nm as well as by visual observation. The MIC was defined as the lowest concentration of compound yielding no visible growth. […] Fastidious bacteria. The medium used for Listeria monocytogenes, Neisseria meningitidis, and Campylobacter jejuni was MHBCA containing 2% laked horse blood. […]

E. coli ATCC 25922 [6] = assay: Minimal Bactericidal Concentration (MBC); assay type: cell-based; conditions: Escherichia coli, ATCC25922, 99.9% killing
Method in brief: (§4)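 Wells lacking visible growth in the MIC plates are sampled, at least 5 per series, and spread onto TSA. The dishes are kept at 35° C. for exactly 24 h, then bacterial colonies are enumerated.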

E. faecalis ATCC 29212 [7] = assay: Minimal Bactericidal Concentration (MBC); assay type: cell-based; conditions: Enterococcus faecalis, ATCC29212, 99.9% killing
Method in brief: as §4

H. influenzae ATCC 49247 = assay: Minimal Bactericidal Concentration (MBC); assay type: cell-based; conditions: Haemophilus influenzae, ATCC49247, 99.9% killing
Method in brief: as §4

S. aureus ATCC 29213 [8] = assay: Minimal Bactericidal Concentration (MBC); assay type: cell-based; conditions: Staphylococcus aureus, ATCC29213, 99.9% killing
Method in brief: as §4

S. aureus MRSA COL [9] = assay: Minimal Bactericidal Concentration (MBC); assay type: cell-based; conditions: Staphylococcus aureus, 99.9% killing
Method in brief: as §4

[10] = system: S. saprophyticus ATCC 15305; assay: Minimal Bactericidal Concentration (MBC); assay type: cell-based; conditions: Staphylococcus saprophyticus, ATCC15305; S. saprophyticus ATCC 15305; 99.9% killing; read-out: MBC
Method in brief: as §4

[11] = system: bacteria of the primary strain panel; assay: MBCs compared with MICs over the strain panels; assay type: cell-based; conditions: most of the time, over tested strains
Description: Minimal Inhibitory Concentration (MIC) Determination. Bacteria (primary strain panel, TABLE 1). Susceptibility tests were performed following the recommendations from the National Committee for Clinical Standards (NCCLS). The MICs were determined by a broth microdilution technique using a final volume of 100 μl of cation-adjusted Mueller Hinton Broth (MHBCA) and a bacterial inoculum of 10^5-10^6 Colony Forming Units (CFU)/ml. The inocula were verified and precisely determined by applying 10-μl drops of 10-fold dilutions onto Triptic Soy Agar plates. The CFU were counted after an incubation of 24 h at 35° C. Any experiment showing an inoculum that was more or less than 10^5-10^6 CFU/ml was rejected. Control antibiotics and test compounds were prepared at a concentration equivalent to 2-fold the highest desired final concentration. […] Microtiter plates were incubated during 24 h at 35° C. and growth was recorded by using a microtiterplate reader at 650 nm as well as by visual observation. […]
Minimal Bactericidal Concentration (MBC). After the microtiter plates were read for the determination of the MIC, a 10-μl sample of each clear well (at least 5 wells without visible growth) was applied onto TSA plates for viable counts determination.
Petri dishes were incubated at 35° C. for exactly 24 h and bacterial colonies were counted.

S. aureus ATCC 29213 [12] = assay: Time-kill curves; assay type: cell-based, Staphylococcus aureus; conditions: at their respective MIC or a multiple of the MIC
Description: (§5) Time-kill curves. The bactericidal action of compounds was also evaluated over time (time-kill curve experiments). A bacterial inoculum of 1×10^5-1×10^7 Colony Forming Units (CFU)/ml was prepared. The inocula were verified and precisely determined by applying 10-μl drops of 10-fold dilutions onto Triptic Soy Agar plates. The CFU were counted after an incubation of 24 h at 35° C. Any experiment showing an inoculum that was more or less than the desired range of CFU/ml was rejected. Time-kill curve experiments were performed in 30 ml of MHB placed in 50-ml shaking flasks over a period of 24 hours. Test compounds and control antibiotics were added at time 0 hour and, at each time point, a sample was removed from flasks and the CFU determined by plate counts as described above. CFU from compound-treated cultures were compared to CFU collected from the control flask without antibiotic. Test compounds and control antibiotics were assayed at the MIC or a multiple of the MIC as determined by a broth microdilution technique as described above.

S. aureus MRSA COL [13] = assay: Time-kill curves; assay type: cell-based, Staphylococcus aureus; conditions: data not shown
Description: as §5

[14] = Enterococcus faecalis, ATCC29212, read-out: MIC
[15] = Escherichia coli, ATCC25922, E. coli ATCC 25922 (Reference), read-out: MIC

| SMILES | MIC [1] | MIC (E. faecalis ATCC 29212 [2]; [14]) | MIC (E. coli ATCC 25922 [3]; [15]) | MIC (S. typhimurium ATCC14028) | MIC (A. baumannii ATCC 19606) | MIC [4] | MIC (MRSA strain Sa228c) | MIC (MRSA strain Sa253c) | MIC (E. coli MC4100) | also measured |
| --- | --- | --- | --- | --- | --- | --- | --- | --- | --- | --- |
| O=[N+]([O-])c1ccc(C=Cc2nc(Nc3ccc(O)cc3)c3cc(F)ccc3n2)o1 [Compound V, 6-fluoro-2-[2-(5-nitro-2-furyl)vinyl]-4-(p-hydroxyanilino)-quinazoline] | 0.03 µg/mL (≈ 0.0765 µM) | 0.03 µg/mL (≈ 0.0765 µM) | 0.5 µg/mL (≈ 1.27 µM) | 1 µg/mL (≈ 2.55 µM) | 1 to 2 µg/mL (≈ 2.55 to 5.1 µM) | 0.25 µg/mL (≈ 0.637 µM) | ≤ 0.06 µg/mL | ≤ 0.06 µg/mL | 1 µg/mL (≈ 2.55 µM) | MIC (E. faecalis ATCC 29212 [2]; listed as Example I compound V): 0.03 µg/mL (≈ 0.0765 µM); MIC (E. coli ATCC 25922 [3]; E. coli ATCC 25922 (Reference), listed as Example I compound V): 0.5 µg/mL (≈ 1.27 µM); MIC (E. faecium VanA): 0.03 µg/mL (≈ 0.0765 µM); MIC [5]: 0.03 to 0.125 µg/mL (≈ 0.0765 to 0.319 µM); MBC (E. coli ATCC 25922 [6]): 0.5 µg/mL (≈ 1.27 µM); MBC (E. faecalis ATCC 29212 [7]): 0.03 µg/mL (≈ 0.0765 µM); MBC (H. influenzae ATCC 49247): 0.06 µg/mL (≈ 0.153 µM); MBC (S. aureus ATCC 29213 [8]): 0.06 µg/mL (≈ 0.153 µM); MBC (S. aureus MRSA COL [9]): 0.06 µg/mL (≈ 0.153 µM); MBC [10]: 0.03 to 0.06 µg/mL (≈ 0.0765 to 0.153 µM); MBCs relative to the MICs [11]: equal to or only 2 to 4-fold higher than the MICs; bactericidal action compared with ciprofloxacin (time-kill) (S. aureus ATCC 29213 [12]): superior to ciprofloxacin; bactericidal action (time-kill) (S. aureus MRSA COL [13]): similarly bactericidal |
| O=C1CN(/N=C/c2ccc([N+](=O)[O-])o2)C(=O)N1 [Nitrofurantoin] | 16 µg/mL (≈ 67.2 µM) | 8 to 16 µg/mL (≈ 33.6 to 67.2 µM) | 8 µg/mL (≈ 33.6 µM) | 32 µg/mL (≈ 134 µM) | 128 µg/mL (≈ 537 µM) | 64 µg/mL (≈ 269 µM) | 16 to 32 µg/mL (≈ 67.2 to 134 µM) | 16 µg/mL (≈ 67.2 µM) | 8 to 16 µg/mL (≈ 33.6 to 67.2 µM) | MIC (E. coli ATCC 25922 [3]; E. coli ATCC 25922 (Reference)): 8 to 16 µg/mL |
